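In this assay, cells in 96-well plates receive the compound at five concentrations for 48 hours. Endpoints are linearly interpolated between the surrounding concentrations. Definition used: TGI = concentration required for complete inhibition of growth.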
Experiments:
Assay in all cases: growth of human tumour cells (NCI), 48 h
786-0 renal = system: 786-0 renal
A498 renal = system: A498 renal
A549 NSCLC = system: A549 NSCLC
ACHN renal = system: ACHN renal
CCRF-CEM leukemia = system: CCRF-CEM leukemia
COLO 205 colon = system: COLO 205 colon
DLD-1 colon = system: DLD-1 colon
DMS 114 small cell lung = system: DMS 114 small cell lung
EKVX NSCLC = system: EKVX NSCLC
HCC-2998 colon = system: HCC-2998 colon
HCT-116 colon = system: HCT-116 colon
HCT-15 colon = system: HCT-15 colon
HL-60(TB) leukemia = system: HL-60(TB) leukemia
HOP-18 NSCLC = system: HOP-18 NSCLC
HOP-62 NSCLC = system: HOP-62 NSCLC
HOP-92 NSCLC = system: HOP-92 NSCLC
HT29 colon = system: HT29 colon
IGROV1 ovarian = system: IGROV1 ovarian
K-562 leukemia = system: K-562 leukemia
KM12 colon = system: KM12 colon
KM20L2 colon = system: KM20L2 colon
LOX IMVI melanoma = system: LOX IMVI melanoma
LXFL 529 NSCLC = system: LXFL 529 NSCLC
M14 melanoma = system: M14 melanoma
M19-MEL melanoma = system: M19-MEL melanoma
MALME-3M melanoma = system: MALME-3M melanoma
MOLT-4 leukemia = system: MOLT-4 leukemia
NCI-H226 lung = system: NCI-H226 lung
NCI-H23 lung = system: NCI-H23 lung
NCI-H460 lung = system: NCI-H460 lung
OVCAR-3 ovarian = system: OVCAR-3 ovarian
OVCAR-4 ovarian = system: OVCAR-4 ovarian
OVCAR-5 ovarian = system: OVCAR-5 ovarian
OVCAR-8 ovarian = system: OVCAR-8 ovarian
RPMI-8226 leukemia = system: RPMI-8226 leukemia
SF-295 CNS = system: SF-295 CNS
SF-539 CNS = system: SF-539 CNS
SK-MEL-2 melanoma = system: SK-MEL-2 melanoma
SK-MEL-5 melanoma = system: SK-MEL-5 melanoma
SK-OV-3 ovarian = system: SK-OV-3 ovarian
SN12C renal = system: SN12C renal
SNB-19 CNS = system: SNB-19 CNS
SNB-75 CNS = system: SNB-75 CNS
SNB-78 CNS = system: SNB-78 CNS
SW-620 colon = system: SW-620 colon
TK-10 renal = system: TK-10 renal
U251 CNS = system: U251 CNS
UACC-257 melanoma = system: UACC-257 melanoma
UACC-62 melanoma = system: UACC-62 melanoma
UO-31 renal = system: UO-31 renal
XF 498 CNS = system: XF 498 CNS
CAKI-1 renal = system: CAKI-1 renal
NCI-H522 lung = system: NCI-H522 lung
RXF 393 renal = system: RXF 393 renal
SF-268 CNS = system: SF-268 CNS
SK-MEL-28 melanoma = system: SK-MEL-28 melanoma
SR leukemia = system: SR leukemia
DMS 273 small cell lung = system: DMS 273 small cell lung

Measured: TGI

CC(C(=O)C(C)O[Si](c1ccccc1)(c1ccccc1)C(C)(C)C)=P(c1ccccc1)(c1ccccc1)c1ccccc1 (stereo not given)
11.7 µM: LXFL 529 NSCLC
11.5 µM: HT29 colon
6.81 µM: SK-OV-3 ovarian
4.74 µM: HOP-92 NSCLC
16.9 µM: TK-10 renal
14.9 µM: DLD-1 colon
8.76 µM: XF 498 CNS
14.7 µM: M14 melanoma
6.25 µM: DMS 114 small cell lung
9.38 µM: OVCAR-3 ovarian
18.8 µM: HCT-15 colon
14.4 µM: UACC-62 melanoma
12.9 µM: KM12 colon
13.4 µM: NCI-H460 lung | SF-539 CNS
8.12 µM: SK-MEL-5 melanoma
14.6 µM: ACHN renal
24.9 µM: OVCAR-5 ovarian
9.93 µM: HOP-18 NSCLC
13.3 µM: A549 NSCLC | SNB-78 CNS
15.5 µM: NCI-H23 lung
4.24 µM: HL-60(TB) leukemia
15.4 µM: 786-0 renal | SW-620 colon
14.1 µM: U251 CNS
13.5 µM: MOLT-4 leukemia | SN12C renal | UACC-257 melanoma
14.5 µM: SNB-19 CNS
11.4 µM: M19-MEL melanoma
10.3 µM: SF-295 CNS
6.58 µM: RPMI-8226 leukemia
8.66 µM: KM20L2 colon
12 µM: MALME-3M melanoma
3.45 µM: COLO 205 colon
15.8 µM: CCRF-CEM leukemia
9.23 µM: HOP-62 NSCLC
16.1 µM: A498 renal
8.11 µM: SNB-75 CNS
10.6 µM: HCT-116 colon | NCI-H226 lung
14.2 µM: OVCAR-8 ovarian
11.1 µM: LOX IMVI melanoma
29.2 µM: EKVX NSCLC
17.2 µM: UO-31 renal
12.3 µM: HCC-2998 colon | K-562 leukemia
13.9 µM: IGROV1 ovarian | OVCAR-4 ovarian
7.64 µM: SK-MEL-2 melanoma

Cc1nc(=O)n2c(c1C(=O)Nc1ccc(Cl)cc1)NCCC2
> 100 µM: 786-0 renal | A549 NSCLC | ACHN renal | CAKI-1 renal | CCRF-CEM leukemia | COLO 205 colon | DMS 114 small cell lung | EKVX NSCLC | HCT-116 colon | HCT-15 colon | HL-60(TB) leukemia | HOP-62 NSCLC | HOP-92 NSCLC | HT29 colon | IGROV1 ovarian | K-562 leukemia | KM12 colon | LOX IMVI melanoma | LXFL 529 NSCLC | M14 melanoma | M19-MEL melanoma | MALME-3M melanoma | MOLT-4 leukemia | NCI-H226 lung | NCI-H23 lung | NCI-H460 lung | NCI-H522 lung | OVCAR-3 ovarian | OVCAR-4 ovarian | OVCAR-5 ovarian | OVCAR-8 ovarian | RPMI-8226 leukemia | RXF 393 renal | SF-268 CNS | SF-295 CNS | SF-539 CNS | SK-MEL-2 melanoma | SK-MEL-28 melanoma | SK-OV-3 ovarian | SN12C renal | SNB-19 CNS | SNB-78 CNS | SR leukemia | SW-620 colon | TK-10 renal | U251 CNS | UACC-62 melanoma | XF 498 CNS

NC(=O)COc1ccc(Br)cc1Br
> 100 µM: 786-0 renal | A498 renal | A549 NSCLC | ACHN renal | CAKI-1 renal | COLO 205 colon | DLD-1 colon | DMS 114 small cell lung | DMS 273 small cell lung | EKVX NSCLC | HCT-116 colon | HCT-15 colon | HL-60(TB) leukemia | HOP-18 NSCLC | HOP-62 NSCLC | HOP-92 NSCLC | HT29 colon | IGROV1 ovarian | K-562 leukemia | KM12 colon | KM20L2 colon | LXFL 529 NSCLC | M14 melanoma | M19-MEL melanoma | MALME-3M melanoma | MOLT-4 leukemia | NCI-H226 lung | NCI-H23 lung | NCI-H460 lung | NCI-H522 lung | OVCAR-3 ovarian | OVCAR-5 ovarian | OVCAR-8 ovarian | RPMI-8226 leukemia | SF-268 CNS | SF-295 CNS | SF-539 CNS | SK-MEL-2 melanoma | SK-MEL-28 melanoma | SK-MEL-5 melanoma | SK-OV-3 ovarian | SN12C renal | SNB-19 CNS | SNB-75 CNS | SNB-78 CNS | SR leukemia | SW-620 colon | U251 CNS | UACC-257 melanoma | UO-31 renal

O=C(/C=C/c1ccc(OCCCOc2ccc(/C=C/C(=O)c3ccc(Cl)cc3)cc2)cc1)c1ccc(Cl)cc1
> 100 µM: 786-0 renal | A549 NSCLC | ACHN renal | CAKI-1 renal | CCRF-CEM leukemia | COLO 205 colon | DLD-1 colon | DMS 114 small cell lung | DMS 273 small cell lung | EKVX NSCLC | HCC-2998 colon | HCT-116 colon | HCT-15 colon | HL-60(TB) leukemia | HOP-18 NSCLC | HOP-62 NSCLC | HOP-92 NSCLC | HT29 colon | IGROV1 ovarian | K-562 leukemia | KM12 colon | KM20L2 colon | LOX IMVI melanoma | LXFL 529 NSCLC | M14 melanoma | M19-MEL melanoma | MALME-3M melanoma | MOLT-4 leukemia | NCI-H226 lung | NCI-H23 lung | NCI-H460 lung | NCI-H522 lung | OVCAR-3 ovarian | OVCAR-4 ovarian | OVCAR-5 ovarian | OVCAR-8 ovarian | RPMI-8226 leukemia | RXF 393 renal | SF-268 CNS | SF-295 CNS | SF-539 CNS | SK-MEL-2 melanoma | SK-MEL-28 melanoma | SK-MEL-5 melanoma | SK-OV-3 ovarian | SN12C renal | SNB-19 CNS | SNB-75 CNS | SNB-78 CNS | SR leukemia | SW-620 colon | TK-10 renal | U251 CNS | UACC-257 melanoma | UACC-62 melanoma | XF 498 CNS

Source: PubChem BioAssay (NCI)
